Reference: ChEMBL document CHEMBL1136918, “Optimization of pyrazole inhibitors of Coactivator Associated Arginine Methyltransferase 1 (CARM1)” (Bioorg Med Chem Lett, 2009)
One block for each compound: values may come before it.

Legend:
[1] = target: T1, Histone-arginine methyltransferase CARM1 (Homo sapiens, UniProt Q86X55); assay: Inhibition of CARM1 assessed as blockade of histone H3 methylation
T1 sequence (Q86X55 whole entry): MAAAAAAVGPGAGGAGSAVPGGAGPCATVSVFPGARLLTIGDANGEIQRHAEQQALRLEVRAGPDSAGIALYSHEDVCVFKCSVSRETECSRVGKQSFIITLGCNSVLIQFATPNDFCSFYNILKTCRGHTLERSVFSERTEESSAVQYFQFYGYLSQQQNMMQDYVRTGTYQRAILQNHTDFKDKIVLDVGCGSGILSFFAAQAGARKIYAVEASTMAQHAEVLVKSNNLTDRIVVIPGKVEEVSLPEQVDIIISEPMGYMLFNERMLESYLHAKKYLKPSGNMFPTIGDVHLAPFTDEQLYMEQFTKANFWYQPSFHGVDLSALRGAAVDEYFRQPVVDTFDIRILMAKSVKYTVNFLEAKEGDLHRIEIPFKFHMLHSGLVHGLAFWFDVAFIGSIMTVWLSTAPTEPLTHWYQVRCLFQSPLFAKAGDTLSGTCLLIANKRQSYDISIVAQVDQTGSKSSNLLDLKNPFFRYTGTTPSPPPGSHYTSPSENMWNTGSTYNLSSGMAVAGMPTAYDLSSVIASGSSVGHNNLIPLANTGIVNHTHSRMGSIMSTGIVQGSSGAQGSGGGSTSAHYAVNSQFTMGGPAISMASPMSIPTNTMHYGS

[2] = Membrane permeability by PAMPA; format: ADME; conditions: read-out: permeability
[3] = target: T2, Nuclear receptor subfamily 1 group I member 2 (Homo sapiens, UniProt O75469); assay: Inhibition of human PXR
T2 sequence (O75469 whole entry): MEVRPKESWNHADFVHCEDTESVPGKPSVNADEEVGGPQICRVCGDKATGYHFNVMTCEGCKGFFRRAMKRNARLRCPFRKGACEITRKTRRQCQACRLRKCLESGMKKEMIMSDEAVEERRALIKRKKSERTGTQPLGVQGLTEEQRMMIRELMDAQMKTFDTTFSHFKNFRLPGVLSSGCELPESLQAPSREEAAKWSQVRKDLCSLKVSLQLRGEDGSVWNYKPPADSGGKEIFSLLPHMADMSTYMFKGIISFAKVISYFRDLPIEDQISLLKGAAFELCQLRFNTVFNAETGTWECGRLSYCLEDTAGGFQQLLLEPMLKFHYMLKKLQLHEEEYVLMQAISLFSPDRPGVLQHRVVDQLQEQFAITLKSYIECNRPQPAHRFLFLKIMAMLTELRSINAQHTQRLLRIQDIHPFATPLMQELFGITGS

[4] = target: Protein arginine N-methyltransferase 3 (Homo sapiens, UniProt O60678); assay: Inhibition of PRMT3 by methylation assay
Sequence of Protein arginine N-methyltransferase 3 (O60678 whole entry): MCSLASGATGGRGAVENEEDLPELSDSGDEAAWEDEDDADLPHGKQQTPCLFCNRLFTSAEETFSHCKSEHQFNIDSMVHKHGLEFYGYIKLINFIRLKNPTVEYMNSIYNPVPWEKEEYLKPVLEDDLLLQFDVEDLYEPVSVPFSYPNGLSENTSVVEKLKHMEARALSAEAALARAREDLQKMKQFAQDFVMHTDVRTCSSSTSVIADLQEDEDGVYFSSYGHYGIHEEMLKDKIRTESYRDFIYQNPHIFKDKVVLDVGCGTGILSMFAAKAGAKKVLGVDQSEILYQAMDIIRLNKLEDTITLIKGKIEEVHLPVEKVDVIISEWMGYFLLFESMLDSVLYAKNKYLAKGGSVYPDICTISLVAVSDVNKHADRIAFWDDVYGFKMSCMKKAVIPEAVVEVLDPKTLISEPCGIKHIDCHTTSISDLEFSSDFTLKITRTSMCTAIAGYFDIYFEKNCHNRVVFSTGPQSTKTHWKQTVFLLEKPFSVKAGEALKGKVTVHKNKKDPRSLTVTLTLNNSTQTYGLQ

Cytochrome P450 3A4 = Cytochrome P450 3A4 (Homo sapiens, UniProt P08684); assay: Inhibition of CYP3A4 expressed in human hepatocytes; format: ADME, cell-based, Hepatocyte
Sequence of Cytochrome P450 3A4 (P08684 whole entry): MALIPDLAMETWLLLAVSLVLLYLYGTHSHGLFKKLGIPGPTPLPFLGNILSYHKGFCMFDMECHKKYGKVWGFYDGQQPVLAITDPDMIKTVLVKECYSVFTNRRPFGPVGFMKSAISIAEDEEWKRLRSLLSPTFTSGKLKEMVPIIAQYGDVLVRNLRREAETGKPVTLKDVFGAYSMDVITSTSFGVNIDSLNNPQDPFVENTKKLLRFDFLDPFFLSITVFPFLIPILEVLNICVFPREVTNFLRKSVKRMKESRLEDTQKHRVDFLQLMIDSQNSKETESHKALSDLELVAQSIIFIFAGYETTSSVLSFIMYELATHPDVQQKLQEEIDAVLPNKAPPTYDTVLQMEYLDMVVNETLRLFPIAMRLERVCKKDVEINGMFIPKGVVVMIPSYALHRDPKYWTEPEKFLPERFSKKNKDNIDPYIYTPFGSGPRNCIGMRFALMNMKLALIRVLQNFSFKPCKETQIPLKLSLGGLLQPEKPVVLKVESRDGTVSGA

[5] = target: Protein arginine N-methyltransferase 1 (Homo sapiens, UniProt Q99873); assay: Inhibition of PRMT1 by methylation assay
Sequence of Protein arginine N-methyltransferase 1 (Q99873 whole entry): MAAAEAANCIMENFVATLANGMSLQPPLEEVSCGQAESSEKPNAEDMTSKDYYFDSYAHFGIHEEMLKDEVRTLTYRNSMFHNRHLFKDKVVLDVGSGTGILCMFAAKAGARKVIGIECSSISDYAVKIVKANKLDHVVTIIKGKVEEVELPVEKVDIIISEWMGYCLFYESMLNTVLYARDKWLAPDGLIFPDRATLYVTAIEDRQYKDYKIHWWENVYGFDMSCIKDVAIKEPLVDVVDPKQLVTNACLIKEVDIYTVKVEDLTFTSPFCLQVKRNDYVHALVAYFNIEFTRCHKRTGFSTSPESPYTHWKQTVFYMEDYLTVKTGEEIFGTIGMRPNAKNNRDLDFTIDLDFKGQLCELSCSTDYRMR

Cytochrome P450 2C9 = Cytochrome P450 2C9 (Homo sapiens, UniProt P11712); assay: Inhibition of CYP2C9 expressed in human hepatocytes; format: ADME, cell-based, Hepatocyte
Sequence of Cytochrome P450 2C9 (P11712 whole entry): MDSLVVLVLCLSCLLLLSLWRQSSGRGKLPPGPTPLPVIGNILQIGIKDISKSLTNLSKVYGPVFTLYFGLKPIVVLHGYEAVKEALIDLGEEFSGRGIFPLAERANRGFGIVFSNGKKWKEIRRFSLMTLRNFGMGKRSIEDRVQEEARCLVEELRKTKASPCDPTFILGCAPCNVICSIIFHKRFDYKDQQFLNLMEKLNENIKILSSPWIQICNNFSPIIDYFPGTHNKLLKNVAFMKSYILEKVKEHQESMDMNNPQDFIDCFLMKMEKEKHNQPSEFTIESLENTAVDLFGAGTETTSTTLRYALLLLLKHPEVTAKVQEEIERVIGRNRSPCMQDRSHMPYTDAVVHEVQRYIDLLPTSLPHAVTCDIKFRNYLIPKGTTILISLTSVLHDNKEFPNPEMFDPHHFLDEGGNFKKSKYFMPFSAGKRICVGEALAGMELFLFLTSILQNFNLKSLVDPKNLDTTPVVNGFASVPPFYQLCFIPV

[6] = Metabolic stability in human microsomes per microgram of protein; format: ADME, Microsome
Cytochrome P450 2D6 = Cytochrome P450 2D6 (Homo sapiens, UniProt P10635); assay: Inhibition of CYP2D6 expressed in human hepatocytes; format: ADME, cell-based, Hepatocyte
Sequence of Cytochrome P450 2D6 (P10635 whole entry): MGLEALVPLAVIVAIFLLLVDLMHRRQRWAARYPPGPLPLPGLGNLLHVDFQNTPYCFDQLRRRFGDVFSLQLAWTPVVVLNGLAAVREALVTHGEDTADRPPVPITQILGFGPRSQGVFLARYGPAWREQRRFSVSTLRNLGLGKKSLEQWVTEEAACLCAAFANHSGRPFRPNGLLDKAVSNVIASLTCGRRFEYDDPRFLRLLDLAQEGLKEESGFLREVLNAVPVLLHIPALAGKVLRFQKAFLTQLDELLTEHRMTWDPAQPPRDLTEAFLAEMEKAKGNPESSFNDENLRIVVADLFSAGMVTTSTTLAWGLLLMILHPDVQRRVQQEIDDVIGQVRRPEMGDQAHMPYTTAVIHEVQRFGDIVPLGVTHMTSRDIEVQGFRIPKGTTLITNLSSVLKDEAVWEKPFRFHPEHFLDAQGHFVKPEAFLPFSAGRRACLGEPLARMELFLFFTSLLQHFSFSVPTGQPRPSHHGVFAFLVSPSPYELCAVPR

[7] = Toxicity against human hepatocytes; format: cell-based, Hepatocyte
Cytochrome P450 2C19 = Cytochrome P450 2C19 (Homo sapiens, UniProt P33261); assay: Inhibition of CYP2C19 expressed in human hepatocytes; format: ADME, cell-based, Hepatocyte
Sequence of Cytochrome P450 2C19 (P33261 whole entry): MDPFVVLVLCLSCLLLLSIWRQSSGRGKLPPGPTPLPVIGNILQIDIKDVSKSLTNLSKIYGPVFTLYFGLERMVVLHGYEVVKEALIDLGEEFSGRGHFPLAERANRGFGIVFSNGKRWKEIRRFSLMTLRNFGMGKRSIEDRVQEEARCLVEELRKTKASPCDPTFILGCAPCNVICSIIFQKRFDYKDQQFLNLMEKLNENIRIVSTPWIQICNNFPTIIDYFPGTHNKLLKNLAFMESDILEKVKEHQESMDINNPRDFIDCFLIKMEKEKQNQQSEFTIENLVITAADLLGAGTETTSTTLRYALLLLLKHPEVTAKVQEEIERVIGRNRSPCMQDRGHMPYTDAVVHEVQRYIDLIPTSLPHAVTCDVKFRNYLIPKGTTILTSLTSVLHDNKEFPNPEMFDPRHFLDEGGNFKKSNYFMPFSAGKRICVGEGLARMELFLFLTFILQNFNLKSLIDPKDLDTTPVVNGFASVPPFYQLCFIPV

- IC50 [1]: > 10 µM
SMILES: C[C@H](N)C(=O)N(C)Cc1cccc(-n2nc(C(F)(F)F)cc2-c2nnc(-c3ccccc3)o2)c1

- IC50 [1]: > 10 µM
SMILES: C[C@H](N)CNCc1cccc(-n2nc(C(F)(F)F)cc2-c2nnc(-c3ccccc3)o2)c1

- Papp [2]: < 1.5 ×10⁻⁶ cm/s
SMILES: COc1ccccc1Nc1nnc(-c2cc(C(F)(F)F)nn2-c2cccc(CNC(=O)[C@H](C)N)c2)o1

- Papp [2]: < 1.5 ×10⁻⁶ cm/s
SMILES: C[C@H](N)C(=O)NCc1cccc(-n2nc(C(F)(F)F)cc2C(=O)NCc2ccccc2)c1

- IC50 [1]: 0.04 µM
- EC50 [3]: > 25 µM
- Papp [2]: 26.7 ×10⁻⁶ cm/s
- IC50 [4]: > 25 µM
- IC50 (Cytochrome P450 3A4): > 100 µM
- IC50 [5]: > 25 µM
- IC50 (Cytochrome P450 2C9): > 100 µM
- Stability [6]: 0.026 nM/min
- IC50 (Cytochrome P450 2D6): > 100 µM
- IC50 (Cytochrome P450 2C19): > 100 µM
SMILES: C[C@H](N)C(=O)NCc1cccc(-n2nc(C(F)(F)F)cc2-c2nnc(-c3cccc4ncsc34)o2)c1
- IC50 [7]: > 100 µM

- Papp [2]: 10.6 ×10⁻⁶ cm/s
SMILES: C[C@H](N)C(=O)NCc1cccc(-n2nc(C(F)(F)F)cc2-c2nnc(-c3ccccc3)o2)c1
